Measured values from article PMC5733478, “A Non-imaging High Throughput Approach to Chemical Library Screening at the Unmodified Adenosine-A3 Receptor in Living Cells” (Frontiers in Pharmacology, 2017).
Where a name gives a salt, the structure may show the parent alone.

Biological target: T1, human A3AR (Homo sapiens, UniProt P0DMS8)
T1 construct: expressed in transfected cells
T1 sequence (P0DMS8 1-318): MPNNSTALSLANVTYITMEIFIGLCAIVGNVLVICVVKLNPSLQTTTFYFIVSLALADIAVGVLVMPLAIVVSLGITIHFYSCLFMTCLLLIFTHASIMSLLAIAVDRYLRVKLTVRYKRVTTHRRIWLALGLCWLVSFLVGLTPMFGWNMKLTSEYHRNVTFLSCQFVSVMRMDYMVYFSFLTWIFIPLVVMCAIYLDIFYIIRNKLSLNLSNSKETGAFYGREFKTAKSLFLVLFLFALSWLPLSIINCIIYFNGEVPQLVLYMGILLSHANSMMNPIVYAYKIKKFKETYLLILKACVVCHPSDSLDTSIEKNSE
Assay: LOPAC library primary screen: single concentration (10 μM) inhibition of 25 nM CA200645 binding, PHERAstar FS
Settings: not given

Structure (SMILES)	% 25 nM CA200645 binding
C[C@]12CCC(=O)C=C1CC[C@@H]1[C@@H]2[C@@H](O)C[C@@]2(C)[C@H]1CC[C@]2(O)C(=O)CO [Hydrocortisone]	84.4 ± 24.1%
N[C@H]1CON=C1O [L-Cycloserine]	98.0 ± 1.4%
CN1C(=O)CCS(=O)(=O)C1c1ccc(Cl)cc1 (stereo not drawn) [Chlormezanone]	101.4 ± 10.9%
CN1C2CCCC1CC(NC(=O)c1nn(C)c3ccccc13)C2 (stereo not drawn) [Granisetron hydrochloride]	100.4 ± 14.5%
CN(C)C/C=C(/c1ccc(Br)cc1)c1cccnc1 [Zimelidine dihydrochloride]	92.5 ± 9.4%
C[C@@H]1O[C@@H]1P(=O)(O)O [Phosphomycin disodium]	98.9 ± 12.7%
CN1CCN(c2nc3cc(C(F)(F)F)ccc3n3cccc23)CC1.O=C(O)/C=C\C(=O)O [CGS-12066A maleate]	97.3 ± 10.3%
CN(CCCOc1ccc(Cc2ccccc2)cc1)CCC(=O)O.Cl [SC-57461A]	83.2 ± 13.1%
Cc1cccc(C(=O)NCN2CCN(c3ccccc3C#N)CC2)c1.O=C(O)/C=C\C(=O)O [PD 168,077 maleate]	92.4 ± 5.3%
Cc1ccc(S(=O)(=O)N[C@@H](Cc2ccccc2)C(=O)CCl)cc1	102.0 ± 13.7%
Cl.Oc1cc2c(cc1O)C(c1ccccc1)CNCC2 (racemic) [(±)-SKF-38393 hydrochloride]	99.4 ± 9.0%
COc1ccc(C(=O)NCc2cccnc2)cc1C(=O)NCc1cccnc1 [Picotamide]	109.0 ± 15.4%
OC[C@H]1NC[C@@H](O)[C@@H]1O [1,4-Dideoxy-1,4-imino-D-arabinitol]	90.0 ± 6.2%
COc1cc(/C=C(\C#N)C(=O)Nc2nnc(C(F)(F)F)s2)ccc1OCc1ccc(C(F)(F)F)cc1C(F)(F)F [XCT790]	87.7 ± 9.0%
O=[N+]([O-])c1cccc2cn[nH]c12 [7-Nitroindazole]	126.0 ± 15.1%
c1ccc2c(c1)CC(N1CCN(c3cccc4c3OCCO4)CC1)C2 [S15535]	97.0 ± 1.3%
O=C(O)c1ccccc1Nc1ccccc1 [N-Phenylanthranilic acid]	95.2 ± 6.4%
O=Nc1ccc2oc(=O)ccc2c1 [6-Nitroso-1,2-benzopyrone]	107.9 ± 12.7%
CCCc1c(-c2ccc(O)cc2)nn(-c2ccc(O)cc2)c1-c1ccc(O)cc1	35.7 ± 9.6%
CC(CCc1ccc(O)cc1)NCCc1ccc(O)c(O)c1 (stereo not drawn) [Dobutamine hydrochloride]	101.9 ± 15.9%
Clc1ccc(C(c2ccc(Cl)cc2)n2cc[n+](CC(OCc3ccc(Cl)cc3Cl)c3ccc(Cl)cc3Cl)c2)cc1 (stereo not drawn) [Calmidazolium chloride]	54.4 ± 19.1%
Clc1ccc2c(c1)C(N1CCNCC1)=Nc1ccccc1O2 [Amoxapine]	102.6 ± 1.7%

Structure (SMILES)	% 25 nM CA200645 binding
COc1ccccc1N1CCN(CCCNc2cc(=O)n(C)c(=O)n2C)CC1 [Urapidil hydrochloride]	97.1 ± 1.5%
CN/C(=N/CCSCc1nc[nH]c1C)NC#N [Cimetidine]	94.0 ± 4.0%
CCCCCCCCCCCCCCC[C@H](O)[C@H](N)CO (racemic) [DL-erythro-Dihydrosphingosine]	98.5 ± 11.2%
O=P(O)(O)C(Cl)(Cl)P(=O)(O)O [Clodronic acid]	98.4 ± 3.5%
COc1cc([C@@H]2c3cc4c(cc3[C@H](O)[C@H]3COC(=O)[C@H]23)OCO4)cc(OC)c1OC [Podophyllotoxin]	97.7 ± 17.3%
C=CC(N)CCC(=O)O (racemic) [(±)-gamma-Vinyl GABA]	96.9 ± 7.5%
COc1ccc(/C=C/c2nc(NCCCN(C)C)c3ccccc3n2)cc1.Cl.Cl.O [CP-31398 dihydrochloride hydrate]	111.8 ± 1.4%
C[C@@H](c1ncncc1F)[C@](O)(Cn1cncn1)c1ccc(F)cc1F [Voriconazole]	96.1 ± 10.4%
CC(C)c1ccc2c(c1)c(SC(C)(C)C)c(CC(C)(C)C(=O)O)n2Cc1ccc(Cl)cc1 [MK-886]	98.7 ± 12.2%
O=C(O)CCC(C(=O)O)N1C(=O)c2ccccc2C1=O [L-Glutamic acid, N-phthaloyl-]	89.4 ± 32.8%
CC1=C(/C=C/C(C)=C/C=C/C(C)=C/C(=O)O)C(C)(C)CCC1 [Retinoic acid]	93.6 ± 14.4%
Cc1cccc(C)c1NC(=O)C(C)N (stereo not drawn) [Tocainide hydrochloride]	102.0 ± 15.0%
CC(=O)CCCCn1c(=O)c2c(ncn2C)n(C)c1=O [Pentoxifylline]	81.9 ± 17.4%
CC12NC(Cc3ccccc31)c1ccccc12.O=C(O)/C=C\C(=O)O (single isomer, unassigned; (+)) [(+)-MK-801 hydrogen maleate]	104.8 ± 18.5%
Br.CCCN(CCC)C1CCc2cccc(O)c2C1 (racemic) [(±)-8-Hydroxy-DPAT hydrobromide]	98.2 ± 1.8%
C/C(=C\c1ccc(C(=O)O)cc1)c1ccc2c(c1)C(C)(C)CCC2(C)C [TTNPB]	92.9 ± 11.5%
Nc1ncnc2c1ncn2C1CCCO1 (stereo not drawn) [SQ 22536]	102.7 ± 4.9%
N.N.O=C([O-])C1(C(=O)[O-])CCC1.[Pt+2] [Carboplatin]	97.7 ± 5.9%
OCCN1CCN(CCCN2c3ccccc3Sc3ccc(C(F)(F)F)cc32)CC1 [Fluphenazine dihydrochloride]	98.1 ± 12.0%
Cl.O=c1[nH]oc2c1CCNC2 [THIP hydrochloride]	100.3 ± 3.4%
O=C(CCCN1CCC(O)(c2cccc(C(F)(F)F)c2)CC1)c1ccc(F)cc1 [Trifluperidol hydrochloride]	102.8 ± 9.3%
N=c1ccn2c(n1)O[C@H]1[C@H](O)[C@@H](CO)O[C@H]12 [Ancitabine hydrochloride]	106.9 ± 5.2%

Structure (SMILES)	% 25 nM CA200645 binding
CN(C(=O)Cc1ccc(Cl)c(Cl)c1)C(CN1CCCC1)c1cccc(OCC(=O)O)c1.Cl (stereo not drawn) [ICI 204,448 hydrochloride]	104.6 ± 7.5%
O=C1CN(/N=C/c2ccc(-c3ccc([N+](=O)[O-])cc3)o2)C(O)=N1 [Dantrolene sodium]	94.8 ± 9.5%
CCN1CCc2nc(N)oc2CC1.Cl.Cl [B-HT 933 dihydrochloride]	90.5 ± 9.0%
O=C1NC(=O)c2cc(Nc3ccccc3)c(Nc3ccccc3)cc21 [DAPH]	31.8 ± 9.9%
C[C@]12CC[C@@H]3c4ccc(O)cc4CC[C@H]3[C@@H]1CCC2=O [Estrone]	91.0 ± 8.5%
O=c1c(O)c(-c2ccc(O)cc2O)oc2cc(O)cc(O)c12 [Morin]	72.1 ± 9.6%
CCN1C[C@]2(COC)[C@H](O)C[C@H](OC)[C@@]34[C@@H]5C[C@@]6(O)[C@H](OC(=O)c7ccccc7)[C@@H]5[C@@](OC(C)=O)([C@@H]([C@H](OC)[C@H]23)[C@@H]14)[C@@H](O)[C@@H]6OC [Aconitine]	95.2 ± 4.4%
Cc1ccc(N(CC2=NCCN2)c2cccc(O)c2)cc1 [Phentolamine mesylate]	98.9 ± 10.7%
CN(N=O)c1cc(O)ccc1O [Dephostatin]	75.4 ± 19.6%
Nc1ccc(N2C(=O)c3ccccc3C2=O)c(Cl)c1 [N-(4-Amino-2-chlorophenyl)phthalimide]	91.1 ± 7.1%
NC(CP(=O)(O)O)C(=O)O (racemic) [(±)-2-Amino-3-phosphonopropionic acid]	96.0 ± 3.9%
Cl.NO [Hydroxylamine hydrochloride]	99.3 ± 3.4%
O=c1cc(O)cc(/C=C/c2ccc(O)c(O)c2)o1 [Hispidin]	77.8 ± 19.6%
CC(C)NCC(O)COc1ccc(CCOCC2CC2)cc1 (stereo not drawn) [Betaxolol hydrochloride]	98.4 ± 4.9%
COCc1nc2c([nH]1)c(=O)n(C)c(=O)n2CC(C)C	99.2 ± 10.1%
CCCCN(CC)c1nc(C)nc2c1c(C)cn2-c1c(C)cc(C)cc1C.Cl [CP-154526 hydrochloride]	77.3 ± 23.1%
COc1nc(C)nc(Cl)c1NC1=NCCN1.Cl [Moxonidine hydrochloride]	99.1 ± 3.2%
CCCCCCCCCCCCCCCC(=O)OC(CC(=O)O)C[N+](C)(C)C.[Cl-] (racemic) [Palmitoyl-DL-Carnitine chloride]	82.9 ± 21.8%
CC(C)NC[C@H](O)COc1cccc2ccccc12 [(S)-Propranolol hydrochloride]	100.2 ± 8.9%
COc1ccccc1OCC(O)CN1CCN(CC(=O)Nc2c(C)cccc2C)CC1 (stereo not drawn) [Ranolazine dihydrochloride]	102.3 ± 13.7%
COc1ccc2c(c1O)-c1cccc3c1[C@@H](C2)N(C)CC3.Cl [R(-)-Apocodeine hydrochloride]	70.5 ± 34.0%

Same assay, conditions: 10 μM compound, 25 nM CA200645, A3AR CHO cells

Structure (SMILES)	hit in LOPAC primary screen (inhibited the binding of CA200645 by >40%)
C#CCn1c(=O)c2c(ncn2C)n(C)c1=O [DMPX, reference compound]	identified

Same assay, conditions: % of control wells (1% DMSO and 25 nM CA200645); compounds at 10 µM; whole live cells expressing the A3AR; mean ± SD, three experiments in duplicate

Structure (SMILES)	% 25 nM CA200645 binding
CCOC(=O)[C@]12CC1/C(=N\O)c1ccccc1O2 (mixture of isomers) [CPCCOEt]	88.3 ± 3.9%
N#CC(C#N)=Cc1ccc(O)c(O)c1 [Tyrphostin 23]	84.9 ± 6.4%

Same assay, conditions: compounds tested at 10 µM; % of control wells (1% DMSO and 25 nM CA200645); whole live cells expressing the A3AR; mean ± SD, three experiments in duplicate

Structure (SMILES)	% 25 nM CA200645 binding
CCC1(C2=NCCN2)Cc2ccccc2O1 (stereo not drawn) [Efaroxan hydrochloride]	95.2 ± 6.3%
